Compound `O=C(N[C@H](Cc1ccc(C(F)(F)F)cc1)[C@@H](O)c1ccc(F)cc1)C1CCCc2ccccc21` (mixture of isomers) [Example 41, N-[(1RS,2SR)-2-(4-fluorophenyl)-2-hydroxy-1-[4-(trifluoromethyl)benzyl]ethyl]-1,2,3,4-tetrahydronaphthalene-1-carboxamide] yielded a melting point of 205 to 214 °C.

`O=C(NC(Cc1ccc(C(F)(F)F)cc1)C(O)c1ccc(F)cc1)c1ccc(-c2ccccc2)cc1` (racemic) [Example 20, N-[2-(4-fluorophenyl)-2-hydroxy-1-[[4-(trifluoromethyl)phenyl]methyl]ethyl]-4-phenylbenzamide] gave a melting point of 178 to 185 °C.

`O=C(O)COc1ccc([C@@H](O)[C@H](Cc2cccc(OC(F)(F)C(F)F)c2)NC(=O)c2cccc3c2C=CCCC3)cc1` (racemic) [Example 251, (4-{(1RS,2SR)-2-[(6,7-dihydro-5H-benzo[a][7]annulen-1-ylcarbonyl)amino]-1-hydroxy-3-[3-(1,1,2,2-tetrafluoroethoxy)phenyl]propyl}phenoxy)acetic acid] registered a melting point of 119 to 120 °C.

`O=C(NC(Cc1ccc(C(F)(F)F)cc1)C(O)c1ccc(F)cc1)C1CCCCC1` (racemic) [Example 8, N-[2-(4-fluorophenyl)-2-hydroxy-1-[[4-(trifluoromethyl)phenyl]methyl]ethyl]cyclohexanecarboxamide] showed a melting point of 161 to 178 °C.

The compound `O=C(N[C@H](Cc1ccc(C(F)(F)F)cc1)[C@@H](O)c1cccc2ccccc12)c1ccc(F)c2ccccc12` (racemic) [Example 186, 4-fluoro-N-((1RS,2SR)-2-hydroxy-2-(1-naphthalenyl)-1-((4-(trifluoromethyl)phenyl)methyl)ethyl)-1-naphthalenecarboxamide] had a melting point of 195 to 196 °C.

`O=Cc1ccc([C@H](O)[C@@H](Cc2cccc(OC(F)(F)C(F)F)c2)NC(=O)c2cccc3c2C=CCCC3)cc1` (racemic) [Example 326, N-[(1RS,2SR)-2-(4-formylphenyl)-2-hydroxy-1-[3-(1,1,2,2-tetrafluoroethoxy)benzyl]ethyl]-6,7-dihydro-5H-benzo[a]cycloheptene-1-carboxamide] yielded a melting point of 164 to 166 °C.

Compound `COc1ccc(C[C@@H](NC(=O)CCCc2ccccc2)[C@@H](O)c2ccc(F)cc2)cc1` (racemic) [Example 151, N-((1RS,2SR)-2-(4-fluorophenyl)-2-hydroxy-1-((4-(methyloxy)phenyl)methyl)ethyl)-4-phenylbutyramide] yielded a melting point of 130 to 131 °C.

The compound `O=C(N[C@H](Cc1cccc(OC(F)(F)C(F)F)c1)[C@@H](O)c1ccc(OCC2CCCCC2)cc1)c1cccc2c1C=CCCC2` (racemic) [Example 246, N-{(1RS,2SR)-2-[4-(cyclohexylmethoxy)phenyl]-2-hydroxy-1-[3-(1,1,2,2-tetrafluoroethoxy)benzyl]ethyl}-6,7-dihydro-5H-benzo[a][7]annulene-1-carboxamide] showed a melting point of 141 to 142 °C.

Take `O=C(N[C@H](Cc1ccc(C(F)(F)F)cc1)[C@@H](O)c1ccc(F)cc1)C(c1ccccc1)C1CCCC1` (mixture of isomers) [Example 110, 2-cyclopentyl-N-[(1RS,2SR)-2-(4-fluorophenyl)-2-hydroxy-1-[4-(trifluoromethyl)benzyl]ethyl]-2-phenylacetamide]: the melting point was 201 to 202 °C.

On to `O=C(N[C@H](Cc1ccc(C(F)(F)F)cc1)[C@@H](O)c1ccc(F)cc1)c1ccc(CCc2ccc(Cl)cc2)cc1` (racemic) [Example 92, 4-[2-(4-chlorophenyl)ethyl]-N-[(1RS,2SR)-2-(4-fluorophenyl)-2-hydroxy-1-[4-(trifluoromethyl)benzyl]ethyl]benzenecarboxamide], for which the melting point lay within 211 to 212 °C.

As for `CC(C)(C)OC(=O)N[C@H](Cc1cccc(OC(F)(F)C(F)F)c1)[C@@H](O)c1ccc(Oc2ccccn2)cc1` (racemic) [Example 257, tert-butyl (1RS,2SR)-2-hydroxy-2-[4-(pyridin-2-yloxy)phenyl]-1-[3-(1,1,2,2-tetrafluoroethoxy)benzyl]ethylcarbamate], the melting point lay within 130 to 131 °C.

`O=C(CBr)N[C@H](Cc1ccc(C(F)(F)F)cc1)[C@@H](O)c1ccc(F)cc1` (racemic) [Example 78, 2-bromo-N-((1RS,2SR)-2-(4-fluorophenyl)-2-hydroxy-1-((4-(trifluoromethyl)phenyl)methyl)ethyl)acetamide]: the melting point lay within 151 to 152 °C.

As for `CCCCOc1ccc([C@H](O)[C@@H](Cc2cccc(OC(F)(F)C(F)F)c2)NC(=O)c2cccc3c2C=CCCC3)cc1` (racemic) [Example 244, N-{(1RS,2SR)-2-(4-butoxyphenyl)-2-hydroxy-1-[3-(1,1,2,2-tetrafluoroethoxy)benzyl]ethyl}-6,7-dihydro-5H-benzo[a][7]annulene-1-carboxamide], the melting point is 126 to 127 °C.

As for `O=C(NC(Cc1ccc(C(F)(F)F)cc1)C(O)c1ccc(F)cc1)c1ccc2ccccc2c1` (racemic) [Example 14, N-[2-(4-fluorophenyl)-2-hydroxy-1-[[4-(trifluoromethyl)phenyl]methyl]ethyl]-2-naphthalenecarboxamide], the melting point is 148 to 150 °C.

Turning to `CCOc1ccc2ccccc2c1C(=O)N[C@H](Cc1ccc(C(F)(F)F)cc1)[C@@H](O)c1ccc(F)cc1` (racemic) [Example 83, 2-(ethyloxy)-N-((1RS,2SR)-2-(4-fluorophenyl)-2-hydroxy-1-((4-(trifluoromethyl)phenyl)methyl)ethyl)-1-naphthalenecarboxamide], the melting point was in the range of 157 to 158 °C.

The compound `O=C(CCC1CCCC1)N[C@H](Cc1ccc(C(F)(F)F)cc1)[C@@H](O)c1ccc(F)cc1` (racemic) [Example 45, 3-cyclopentyl-N-[(1RS,2SR)-2-(4-fluorophenyl)-2-hydroxy-1-[4-(trifluoromethyl)benzyl]ethyl]propionamide] had a melting point of 169 to 170 °C.

Compound `O=C(NC(Cc1ccc(C(F)(F)F)cc1)C(O)c1ccc(F)cc1)c1ccccc1-c1ccccc1` (racemic) [Example 10, N-[2-(4-fluorophenyl)-2-hydroxy-1-[[4-(trifluoromethyl)phenyl]methyl]ethyl]-2-phenylbenzamide] registered a melting point of 133 to 134 °C.

Consider `O=C(N[C@H](Cc1ccc(F)cc1)[C@@H](O)c1ccc(C(F)(F)F)cc1)C1CCCCC1` (racemic) [Example 214, N-((1RS,2SR)-1-((4-fluorophenyl)methyl)-2-hydroxy-2-(4-(trifluoromethyl)phenyl)ethyl)cyclohexanecarboxamide], for which the melting point lay in the range of 220 to 221 °C.

In the case of `CC(C)(C)c1ccc(C[C@@H](NC(=O)c2cccc3c(F)cccc23)[C@@H](O)c2cccc(Cl)c2)cc1` (racemic) [Example 275, N-[(1RS,2SR)-1-(4-tert-butylbenzyl)-2-(3-chlorophenyl)-2-hydroxyethyl]-5-fluoro-1-naphthamide], the melting point fell in the range of 102 to 103 °C.

`CC(C)(C)OC(=O)N[C@H](Cc1cnc(C(F)(F)F)s1)[C@@H](O)c1ccc(F)cc1` (racemic) [Example 168, tert-butyl N-[(1RS,2SR)-2-(4-fluorophenyl)-2-hydroxy-1-[[2-(trifluoromethyl)-1,3-thiazol-5-yl]methyl]ethyl]carbamate]: the melting point was in the range of 137 to 138 °C.

In the case of `NC(=O)c1ccc(C(=O)N[C@H](Cc2ccc(C(F)(F)F)cc2)[C@@H](O)c2ccc(F)cc2)c2ccccc12` (racemic) [Example 104, N1-[(1RS,2SR)-2-(4-fluorophenyl)-2-hydroxy-1-[4-(trifluoromethyl)benzyl]ethyl]naphthalene-1,4-dicarboxamide], the melting point was 255 to 256 °C.

On to `O=C(N[C@H](Cc1cccc(OC(F)(F)C(F)F)c1)[C@@H](O)c1ccc(F)cc1)OCc1ccccc1` (racemic) [Example 287, benzyl N-[(1RS,2SR)-2-(4-fluorophenyl)-2-hydroxy-1-[3-(1,1,2,2-tetrafluoroethoxy)benzyl]ethyl]carbamate], for which the melting point was 136 to 137 °C.

The compound `CC(C)(C)OC(=O)N[C@H](Cc1ccc(CC(F)(F)C(F)(F)F)cc1)[C@@H](O)c1cccc(Cl)c1` (racemic) [Example 372, tert-butyl (1RS,2SR)-2-(3-chlorophenyl)-2-hydroxy-1-[4-(2,2,3,3,3-pentafluoropropyl)benzyl]ethylcarbamate] yielded a melting point of 156 to 157 °C.

With `CC(C)(C)OC(=O)N[C@H](Cc1cccc(C(F)C(C)(C)F)c1)[C@@H](O)c1ccc(F)cc1` (mixture of isomers) [Example 341, tert-butyl N-[(1RS,2SR)-1-[3-(1,2-difluoro-2-methylpropyl)benzyl]-2-(4-fluorophenyl)-2-hydroxyethyl]carbamate], the melting point lay within 148 to 149 °C.

`O=C(N[C@H](Cc1ccc(C(F)(F)F)cc1)[C@@H](O)c1ccc(F)cc1)c1ccccc1` (racemic) [Example 68, N-[(1RS,2SR)-2-(4-fluorophenyl)-2-hydroxy-1-[4-(trifluoromethyl)benzyl]ethyl]benzamide]: the melting point was 193 to 194 °C.

For the compound `O=C(N[C@H](Cc1ccc(C(F)(F)F)cc1)[C@@H](O)c1ccc(F)cc1)c1c(CSc2ccccc2)ccc2ccccc12` (racemic) [Example 97, N-[(1RS,2SR)-2-(4-fluorophenyl)-2-hydroxy-1-[4-(trifluoromethyl)benzyl]ethyl]-2-[(phenylthio)methyl]naphthalene-1-carboxamide], the melting point was 102 to 104 °C.

`O=C(N[C@H](Cc1ccc(C(F)(F)F)cc1)[C@@H](O)c1ccc(Oc2ccccc2)cc1)c1ccc(F)c2ccccc12` (racemic) [Example 209, N-((1RS,2SR)-2-hydroxy-2-(4-phenoxyphenyl)-1-((4-(trifluoromethyl)phenyl)methyl)ethyl)-4-fluoro-1-naphthalenecarboxamide] displayed a melting point of 205 to 210 °C.

The compound `O=C(N[C@H](Cc1cccc(OC(F)(F)C(F)F)c1)[C@@H](O)c1ccc(F)cc1)c1cccc2c1OCCCO2` (racemic) [Example 128, N-[(1RS,2SR)-2-(4-fluorophenyl)-2-hydroxy-1-[3-(1,1,2,2-tetrafluoroethoxy)benzyl]ethyl]-3,4-dihydro-2H-1,5-benzodioxepine-6-carboxamide] returned a melting point of 147 to 148 °C.

By melting point is commonly meant the temperature of the solid-liquid transition.
